Assay results reported in patent US9040523B2, “Antifungal 5,6-dihydro-4H-pyrrolo[1,2-α][1,4]-benzodiazepines and 6H-pyrrolo[1,2-α][1,4]benzodiazepines substituted with benzene derivatives” (JANSSEN PHARMACEUTICA NV, priority 2010, dated 2015).
pIC50: −log10 of the molar value.

Tests used:
Cytochrome P450 2D6 = Cytochrome P450 2D6 (Homo sapiens, UniProt P10635); test: Human liver microsomal cytochrome P450 cocktail inhibition assay, Protocol C; settings: 2D6_Dextro pIC50, human liver microsomes 0.2 mg/ml; probe dextromethorphan 3 microM
CYP2C9 = CYP2C9 (Homo sapiens, UniProt P11712); test: as above; settings: human, liver microsomes, pH 7.4, probe tolbutamide (100 microM), 2C9 Tolbut pIC50, human liver microsomes 0.2 mg/ml
Cytochrome P450 1A2 = target: T1, Cytochrome P450 1A2 (Homo sapiens, UniProt P05177); test: as above
T1 sequence (P05177 1-516): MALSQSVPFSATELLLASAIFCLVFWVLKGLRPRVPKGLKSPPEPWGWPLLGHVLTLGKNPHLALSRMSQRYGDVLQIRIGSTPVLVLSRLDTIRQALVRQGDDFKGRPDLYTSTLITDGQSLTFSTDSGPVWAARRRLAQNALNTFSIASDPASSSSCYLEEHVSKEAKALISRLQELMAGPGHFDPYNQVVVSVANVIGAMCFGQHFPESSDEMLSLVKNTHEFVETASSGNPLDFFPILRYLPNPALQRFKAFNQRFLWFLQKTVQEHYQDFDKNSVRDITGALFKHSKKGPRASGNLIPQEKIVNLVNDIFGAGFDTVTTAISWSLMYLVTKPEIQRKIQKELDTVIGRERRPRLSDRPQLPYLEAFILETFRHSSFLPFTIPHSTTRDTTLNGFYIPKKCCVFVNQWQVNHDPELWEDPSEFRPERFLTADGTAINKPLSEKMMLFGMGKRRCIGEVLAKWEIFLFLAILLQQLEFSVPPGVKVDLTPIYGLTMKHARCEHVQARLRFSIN

Cytochrome P450 2C19 = Cytochrome P450 2C19 (Homo sapiens, UniProt P33261); test: as above; settings: 2C19_S-Meph pIC50, human liver microsomes 0.2 mg/ml; probe S-mephenytoin 30 microM
Cytochrome P450 2C8 = target: T2, Cytochrome P450 2C8 (Homo sapiens, UniProt P10632); test: as above; assay type: in vitro ADME; settings: human liver microsomes 0.2 mg/ml; probe amodiaquine 2 microM; read-out: 2C8_Amod pIC50 (converted)
T2 construct: tissue BD Gentest; host or cells: human liver microsomes
T2 sequence (P10632 1-490): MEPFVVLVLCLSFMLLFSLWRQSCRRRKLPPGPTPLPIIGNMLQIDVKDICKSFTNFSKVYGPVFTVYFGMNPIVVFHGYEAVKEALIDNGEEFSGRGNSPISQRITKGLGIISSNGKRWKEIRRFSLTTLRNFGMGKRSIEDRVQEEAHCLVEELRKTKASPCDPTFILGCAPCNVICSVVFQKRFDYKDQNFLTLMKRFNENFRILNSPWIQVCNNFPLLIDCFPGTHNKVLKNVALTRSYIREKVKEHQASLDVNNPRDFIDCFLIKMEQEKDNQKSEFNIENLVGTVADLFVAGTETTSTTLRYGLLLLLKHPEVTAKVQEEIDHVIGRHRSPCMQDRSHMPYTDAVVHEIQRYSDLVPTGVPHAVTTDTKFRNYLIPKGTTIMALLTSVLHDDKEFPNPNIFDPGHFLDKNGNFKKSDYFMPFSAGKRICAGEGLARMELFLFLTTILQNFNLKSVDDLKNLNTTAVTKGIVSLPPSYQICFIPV

CYP3A4/5 = CYP3A4/5 (Homo sapiens, UniProt P08684); test: in vitro; settings: liver microsomes, pH 7.4, probe midazolam (2 microM)
Experimental: Probe substrates and final assay concentrations with the appropriate internal standard are outlined in Table 6a.
After a 10 min pre-incubation at 37° C., the reaction was started with addition of NADPH at a final concentration of 1.0 mM. […] The samples are centrifuged for 10 min at 4° C. at 4000 rpm and 60 microliters supernatant is diluted with 180 microliters water. Each sample is injected onto a UPLC/MS system for the simultaneous measurement of the probe substrate metabolites and their associated deuterated internal standards.
Percentage inhibition data are plotted against the Log transformed test compound concentration and after curve fitting the IC50-value is determined.

[1] = test system: Trichophyton mentagrophytes B70554; test: Antifungal activity in vitro (resazurin susceptibility screen), Inf. G; assay type: cell-based; settings: Trichophyton mentagrophytes, B70554, Trichophyton mentagrophytes B70554; 27 °C, 7 days, resa time 24 hours; read-out: Inf. G pIC50 (converted)
How it was run: (§1)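 Each well was inoculated with 10^3 cfu of fungus onto dried, pre-spotted compound serial dilutions in RPMI-MOPS medium, with fungal growth read by resazurin. Growth was referenced to drug-free culture (100%) and medium-only (0%) controls on each plate.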

[2] = test system: Sporothrix schenkii B62482; test: Antifungal activity in vitro (resazurin susceptibility screen), Inf. A; assay type: cell-based; settings: Sporothrix, B62482, Sporothrix schenkii B62482; 27 °C, 4 days, resa time 24 hours; highest in-test concentration 64 μM; read-out: Inf. A pIC50 (converted)
How it was run: (§2)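 Inoculum: 10^3 cfu/well from cryostocks diluted 1/1000 immediately prior to use. Drug plates were pre-spotted serial dilutions stored dark at 4 °C, ≤2 wk. Controls: fungus without antifungal (100%) and RPMI-MOPS blank (0%).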

[3] = test system: Scedosporium prolificans IHEM21157; test: Antifungal activity in vitro (resazurin susceptibility screen), Inf. I; assay type: cell-based; settings: Lomentospora prolificans, 37 °C, 48 hours, resa time 17 hours, read-out: Inf. I pIC50 (converted)
Experimental: (§3) The standard susceptibility screen was performed in 96-well plates (U-bottom, Greiner Bio-One). […] These serial dilutions (10 n1) were then spotted onto test-plates that could be stored in the dark at 4° C. for a maximum period of 2 weeks. […] The different fungal species/isolates (Table 3a) were cryopreserved and 1/1000 diluted in medium just prior to use. A standard inoculum of 200 μl containing 10^3 colony-forming unit (cfu) was then added to each well. A positive control (100% growth=fungal culture without antifungal) and a negative control (0% growth ═RPMI-MOPS medium) were included on each plate. […] [table]

[4] = Liver metabolic stability assay, gpLM; assay type: in vitro ADME, guinea pig; settings: guinea pig microsomes, 1 mg protein/ml, 5 μM test compound, 15 min, 37 °C
[5] = test system: Trichophyton rubrum B68183; test: Antifungal activity in vitro (resazurin susceptibility screen), Inf. C; assay type: cell-based; settings: Trichophyton rubrum B68183; 27 °C, 7 days, resa time 24 hours; read-out: Inf. C pIC50 (converted)
How it was run: as §2

[6] = test system: Mucor circinelloides IHEM21105; test: Antifungal activity in vitro (resazurin susceptibility screen), Inf. L; assay type: cell-based; settings: 27 °C, 48 hours, resa time 17 hours, read-out: Inf. L pIC50 (converted)
Experimental: as §3

[7] = Liver metabolic stability assay, hLM; assay type: in vitro ADME, human; settings: human liver microsomes, 1 mg protein/ml, 5 μM test compound, 15 min, 37 °C
[8] = test system: Candida parapsilosis B66126; test: Antifungal activity in vitro (resazurin susceptibility screen), Inf. D; assay type: cell-based; settings: Lodderomyces parapsilosis; Candida parapsilosis B66126; 37 °C, 24 hours, resa time 4 hours; read-out: Inf. D pIC50 (converted)
How it was run: as §1

[9] = test system: Aspergillus fumigatus B42928; test: Antifungal activity in vitro (resazurin susceptibility screen), Inf. E; assay type: cell-based; settings: Aspergillus fumigatus B42928; 27 °C, 48 hours, resa time 17 hours; read-out: Inf. E pIC50 (converted)
How it was run: as §2

Microsporum canis B68128 = test: Antifungal activity in vitro (resazurin susceptibility screen), Inf. B; assay type: cell-based; settings: Microsporum canis, B68128, Microsporum canis B68128; 27 °C, 9 days, resa time 24 hours; read-out: Inf. B pIC50 (converted)
How it was run: as §1

CYP2D6 = CYP2D6 (Homo sapiens, UniProt P10635); test: Human liver microsomal cytochrome P450 inhibition assay, Protocol B; assay type: in vitro ADME; settings: pH 7.4; at 30 μM; solvent condition B (0.30% DMSO+0.68% acetonitrile); human liver microsomes; probe dextromethorphan
Experimental: (§4) The samples are centrifuged for 10 min at 4° C. at 4000 rpm and the supernatant is analyzed. Analysis for CYP1A2 with resorufin was performed by fluorescence while the CY2D6 inhibition potential was assessed using LC-MS detection.

CYP1A2 = target: T3, CYP1A2 (Homo sapiens, UniProt P05177); test: as above; assay type: in vitro ADME; settings: liver microsomes, pH 7.4, probe resorufin, at 30 μM
T3 sequence (P05177 1-516): T1 sequence (P05177 1-516)
Experimental: as §4

[10] = test system: Rhizomucor miehei IHEM13391; test: Antifungal activity in vitro (resazurin susceptibility screen), Inf. K; assay type: cell-based; settings: 37 °C, 48 hours, resa time 17 hours, read-out: Inf. K pIC50 (converted)
Experimental: as §3

[11] = test system: Cryptococcus neoformans B66663; test: Antifungal activity in vitro (resazurin susceptibility screen), Inf. F; assay type: cell-based; settings: Cryptococcus neoformans, B66663, Cryptococcus neoformans B66663; 37 °C, 24 hours, resa time 4 hours; read-out: Inf. F pIC50 (converted)
How it was run: as §2

Rhizopus oryzae IHEM5223 = test: Antifungal activity in vitro (resazurin susceptibility screen), Inf. J; assay type: cell-based; settings: Rhizopus arrhizus, 37 °C, 24 hours, resa time 6 hours, read-out: Inf. J pIC50 (converted)
Experimental: as §3

[12] = test system: Scedosporium apiospermum IHEM3817; test: Antifungal activity in vitro (resazurin susceptibility screen), Inf. H; assay type: cell-based; settings: 37 °C, 48 hours, resa time 17 hours, read-out: Inf. H pIC50 (converted)
Experimental: as §3

Chain of Cytochrome P450 2C19 (P33261 whole entry): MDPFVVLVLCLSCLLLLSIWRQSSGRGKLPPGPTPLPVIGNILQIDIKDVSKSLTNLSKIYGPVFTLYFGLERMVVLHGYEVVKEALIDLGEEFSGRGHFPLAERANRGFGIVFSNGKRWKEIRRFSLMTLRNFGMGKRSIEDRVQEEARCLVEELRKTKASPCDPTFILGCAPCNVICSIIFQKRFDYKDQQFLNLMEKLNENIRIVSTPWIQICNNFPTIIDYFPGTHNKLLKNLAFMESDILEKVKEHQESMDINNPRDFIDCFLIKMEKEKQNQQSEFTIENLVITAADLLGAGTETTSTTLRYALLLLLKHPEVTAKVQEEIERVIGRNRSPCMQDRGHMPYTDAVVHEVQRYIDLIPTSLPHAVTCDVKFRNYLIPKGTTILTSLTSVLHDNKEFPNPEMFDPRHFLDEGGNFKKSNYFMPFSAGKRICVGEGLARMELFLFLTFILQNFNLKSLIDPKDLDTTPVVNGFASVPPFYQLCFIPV
Chain of Cytochrome P450 2D6 (P10635 whole entry): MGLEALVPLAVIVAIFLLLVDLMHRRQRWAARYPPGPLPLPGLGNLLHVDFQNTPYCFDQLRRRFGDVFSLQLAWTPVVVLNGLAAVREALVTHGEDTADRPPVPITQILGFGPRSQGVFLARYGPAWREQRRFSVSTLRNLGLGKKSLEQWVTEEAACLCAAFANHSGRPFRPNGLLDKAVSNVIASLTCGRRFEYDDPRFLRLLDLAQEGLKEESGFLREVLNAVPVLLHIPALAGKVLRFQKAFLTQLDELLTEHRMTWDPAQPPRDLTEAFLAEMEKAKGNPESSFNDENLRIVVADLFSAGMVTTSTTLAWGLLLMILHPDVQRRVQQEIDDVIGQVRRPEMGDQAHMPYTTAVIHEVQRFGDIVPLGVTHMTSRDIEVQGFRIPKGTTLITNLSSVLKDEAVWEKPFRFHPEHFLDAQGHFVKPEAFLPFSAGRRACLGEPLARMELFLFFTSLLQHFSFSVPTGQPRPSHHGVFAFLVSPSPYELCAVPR
Chain of CYP2C9 (P11712 whole entry): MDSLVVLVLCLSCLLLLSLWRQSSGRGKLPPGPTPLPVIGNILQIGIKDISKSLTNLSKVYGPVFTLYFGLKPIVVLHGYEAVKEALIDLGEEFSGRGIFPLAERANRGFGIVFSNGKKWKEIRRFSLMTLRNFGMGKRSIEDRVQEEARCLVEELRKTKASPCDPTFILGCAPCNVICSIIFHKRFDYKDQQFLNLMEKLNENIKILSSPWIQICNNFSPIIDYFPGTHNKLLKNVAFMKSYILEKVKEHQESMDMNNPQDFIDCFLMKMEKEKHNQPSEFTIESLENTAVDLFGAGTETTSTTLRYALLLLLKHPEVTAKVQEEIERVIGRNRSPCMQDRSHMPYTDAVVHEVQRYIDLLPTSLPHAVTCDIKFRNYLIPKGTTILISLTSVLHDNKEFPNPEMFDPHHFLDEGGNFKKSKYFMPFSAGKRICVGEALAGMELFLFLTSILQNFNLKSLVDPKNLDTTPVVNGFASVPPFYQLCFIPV
Chain of CYP3A4/5 (P08684 2-503): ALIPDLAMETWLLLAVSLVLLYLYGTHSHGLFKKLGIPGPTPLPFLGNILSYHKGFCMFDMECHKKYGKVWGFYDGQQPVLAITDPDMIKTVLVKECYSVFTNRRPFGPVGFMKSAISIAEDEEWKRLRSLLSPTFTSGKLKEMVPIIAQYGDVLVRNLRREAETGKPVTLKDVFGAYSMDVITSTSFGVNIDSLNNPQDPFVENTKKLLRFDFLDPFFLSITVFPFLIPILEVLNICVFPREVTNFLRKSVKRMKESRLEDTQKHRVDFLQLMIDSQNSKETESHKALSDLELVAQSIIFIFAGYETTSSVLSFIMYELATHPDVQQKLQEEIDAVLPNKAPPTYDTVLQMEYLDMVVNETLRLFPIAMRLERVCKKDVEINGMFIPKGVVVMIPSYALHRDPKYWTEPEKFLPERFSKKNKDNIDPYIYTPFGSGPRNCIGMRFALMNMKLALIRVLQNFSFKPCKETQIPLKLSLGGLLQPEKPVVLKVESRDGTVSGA
Chain of CYP2D6 (P10635 whole entry): as the sequence (P10635 whole entry) above

SMILES: CCc1ccc(C2NCc3c(Cl)cccc3-n3cccc32)cc1 (centres unmarked)
- pIC50 (Cytochrome P450 2D6): 5.50
- IC50 at 10 min (CYP2C9): 10 µM
- pIC50 (Cytochrome P450 1A2): < 5.00
- pIC50 (Cytochrome P450 2C19): 6.00
- IC50 (Cytochrome P450 2C8): > 10 µM

SMILES: CCc1ccc(C2NCc3ccc(Cl)cc3-n3cccc32)cc1 (centres unmarked)
- IC50 at 10 min (CYP3A4/5): 6.31 µM
- pIC50 (Cytochrome P450 2D6): 5.40
- IC50 at 10 min (CYP2C9): 10 µM
- pIC50 (Cytochrome P450 1A2): < 5.00
- pIC50 (Cytochrome P450 2C19): 6.50
- IC50 (Cytochrome P450 2C8): > 10 µM

SMILES: CC(=O)c1ccc(C2=NCc3ccc(Cl)cc3-n3cccc32)cc1 [Compound 18, 1-[4-(9-chloro-6H-pyrrolo[1,2-a][1,4]benzodiazepin-4-yl)phenyl]-ethanone]
- melting point: 114.4 to 115.7 °C
- IC50 [1]: 1 µM
- IC50 [2]: 7.94 µM
- IC50 [3]: 12.6 µM
- %-compound metabolised Met_gpLM [4]: 36%
- IC50 [5]: 0.316 µM
- IC50 [6]: > 63.1 µM
- %-compound metabolised_Met_hLM [7]: 17%
- IC50 [8]: 63.1 µM
- IC50 [9]: 0.501 µM
- IC50 (Microsporum canis B68128): 2 µM
- inhibition at 10 min, 30 µM (CYP2D6): 40 to 45%
- inhibition at 10 min, 30 µM (CYP1A2; solvent condition A (0.15% DMSO+[…] acetonitrile)): 20 to 25%
- inhibition at 10 min, 30 µM (CYP1A2; solvent condition B (0.30% DMSO+0.68% acetonitrile)): 25 to 35%
- IC50 [10]: > 63.1 µM
- IC50 [11]: 1.58 µM
- IC50 (Rhizopus oryzae IHEM5223): > 63.1 µM
- IC50 [12]: 39.8 µM
